Measurements reported in ChEMBL document CHEMBL1201862, “PubChem BioAssay data set” (2004).
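Tested at 5 concentrations; 48 h exposure; 96-well plates; endpoints linearly interpolated, else capped at highest concentration. GI50 marks 50% less growth.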 Calls of active or inactive are those of the source. Rule as the data show it: active = GI50 up to about 1.1 µM and inactive = higher.

Experiments:
Experiment in all cases: NCI anticancer screen, dose series, 48 h
SK-MEL-28 = test system: SK-MEL-28
CCRF-CEM = test system: CCRF-CEM
786-0 = test system: 786-0
IGROV-1 = test system: IGROV-1
KM12 = test system: KM12
LXFL 529 = test system: LXFL 529
HL-60 = test system: HL-60
SNB-78 = test system: SNB-78
HCC 2998 = test system: HCC 2998
KM-20L2 = test system: KM-20L2
SNB-19 = test system: SNB-19
A549 = test system: A549
EKVX = test system: EKVX
SF-295 = test system: SF-295
DLD-1 = test system: DLD-1
U-251 = test system: U-251
NCI-H226 = test system: NCI-H226
MDA-MB-435 = test system: MDA-MB-435
MCF7 = test system: MCF7
NCI/ADR-RES = test system: NCI/ADR-RES

| SMILES | GI50 (SK-MEL-28) | GI50 (CCRF-CEM) | GI50 (786-0) | GI50 (IGROV-1) | GI50 (KM12) | GI50 (LXFL 529) | GI50 (HL-60) | GI50 (SNB-78) | GI50 (HCC 2998) | GI50 (KM-20L2) | GI50 (SNB-19) | GI50 (A549) | GI50 (EKVX) | GI50 (SF-295) | GI50 (DLD-1) | GI50 (U-251) | GI50 (NCI-H226) | GI50 (MDA-MB-435) | GI50 (MCF7) | GI50 (NCI/ADR-RES) |
| --- | --- | --- | --- | --- | --- | --- | --- | --- | --- | --- | --- | --- | --- | --- | --- | --- | --- | --- | --- | --- |
| Cc1nn(-c2ccccc2)c(-c2ccccc2[N+](=O)[O-])c1CC#N | > 100 µM (inactive) | > 100 µM (inactive) | > 100 µM (inactive) | > 100 µM (inactive) | > 100 µM (inactive) | > 100 µM (inactive) | 69.5 µM (inactive) | > 100 µM (inactive) | > 100 µM (inactive) | > 100 µM (inactive) | > 100 µM (inactive) | > 100 µM (inactive) | > 100 µM (inactive) | > 100 µM (inactive) | – | – | – | – | – | – |
| N#CC(C#N)=C(N)/C(C#N)=C\c1ccnc2ccccc12 | 20.2 µM (inactive) | 3.21 µM (inactive) | 18.9 µM (inactive) | 22.1 µM (inactive) | 25.7 µM (inactive) | 17.2 µM (inactive) | 2.01 µM (inactive) | 27.1 µM (inactive) | 37 µM (inactive) | – | 31.8 µM (inactive) | > 100 µM (inactive) | – | 28.2 µM (inactive) | 5.71 µM (inactive) | 20 µM (inactive) | – | – | – | – |
| OCCNCO | > 100 µM (inactive) | > 100 µM (inactive) | > 100 µM (inactive) | > 100 µM (inactive) | > 100 µM (inactive) | > 100 µM (inactive) | 46.8 µM (inactive) | > 100 µM (inactive) | – | > 100 µM (inactive) | > 100 µM (inactive) | > 100 µM (inactive) | > 100 µM (inactive) | > 100 µM (inactive) | – | > 100 µM (inactive) | > 100 µM (inactive) | – | – | – |
| O=C(O)CCSC(=O)Nc1ccc([N+](=O)[O-])cc1 | > 100 µM (inactive) | > 100 µM (inactive) | > 100 µM (inactive) | 72.8 µM (inactive) | > 100 µM (inactive) | > 100 µM (inactive) | > 100 µM (inactive) | > 100 µM (inactive) | > 100 µM (inactive) | – | > 100 µM (inactive) | > 100 µM (inactive) | > 100 µM (inactive) | > 100 µM (inactive) | > 100 µM (inactive) | > 100 µM (inactive) | – | – | – | – |
| O=C(NN1C(=O)C(Cl)C1c1ccccc1Cl)c1ccccc1O (stereo not drawn) | > 100 µM (inactive) | > 100 µM (inactive) | > 100 µM (inactive) | – | > 100 µM (inactive) | > 100 µM (inactive) | > 100 µM (inactive) | > 100 µM (inactive) | > 100 µM (inactive) | – | > 100 µM (inactive) | > 100 µM (inactive) | – | > 100 µM (inactive) | > 100 µM (inactive) | > 100 µM (inactive) | > 100 µM (inactive) | – | – | – |
| O=C(Nc1ccn(C2CCC(COC(c3ccccc3)(c3ccccc3)c3ccccc3)O2)c(=O)n1)c1ccccc1 (stereo not drawn) | 9.23 µM (inactive) | 3.28 µM (inactive) | 2.64 µM (inactive) | 6.04 µM (inactive) | 5.87 µM (inactive) | – | 1.83 µM (inactive) | – | 11.5 µM (inactive) | – | 5.66 µM (inactive) | 4.21 µM (inactive) | 5.11 µM (inactive) | 3.11 µM (inactive) | – | 4.06 µM (inactive) | 6.9 µM (inactive) | 3.42 µM (inactive) | 4.22 µM (inactive) | 2.72 µM (inactive) |
| OC(COc1ccccc1)CN1CCCCC1 (stereo not drawn) | > 100 µM (inactive) | > 100 µM (inactive) | > 100 µM (inactive) | > 100 µM (inactive) | > 100 µM (inactive) | – | > 100 µM (inactive) | – | > 100 µM (inactive) | – | > 100 µM (inactive) | > 100 µM (inactive) | 63.4 µM (inactive) | > 100 µM (inactive) | – | > 100 µM (inactive) | > 100 µM (inactive) | > 100 µM (inactive) | > 100 µM (inactive) | > 100 µM (inactive) |
| CC1(C)C2CC(=O)C1(C)C(OCc1ccccc1)C2 (stereo not drawn) | 94.2 µM (inactive) | 26.1 µM (inactive) | 70 µM (inactive) | > 100 µM (inactive) | 60.8 µM (inactive) | – | 24.4 µM (inactive) | – | 59.8 µM (inactive) | – | 88.3 µM (inactive) | 74.3 µM (inactive) | > 100 µM (inactive) | 68.7 µM (inactive) | – | 48.3 µM (inactive) | > 100 µM (inactive) | 47 µM (inactive) | 64.7 µM (inactive) | 28.6 µM (inactive) |
| c1ccc(CCN2CCOCC2)nc1 | > 100 µM (inactive) | > 100 µM (inactive) | > 100 µM (inactive) | > 100 µM (inactive) | > 100 µM (inactive) | – | > 100 µM (inactive) | – | > 100 µM (inactive) | – | > 100 µM (inactive) | > 100 µM (inactive) | > 100 µM (inactive) | > 100 µM (inactive) | – | > 100 µM (inactive) | > 100 µM (inactive) | > 100 µM (inactive) | > 100 µM (inactive) | > 100 µM (inactive) |
| CC(C)(C)c1cc2c(c(C(C)(C)C)c1O)CC(=O)O2 | 40.6 µM (inactive) | 29.6 µM (inactive) | 26.5 µM (inactive) | 40.1 µM (inactive) | 20.7 µM (inactive) | – | 34.6 µM (inactive) | – | 35 µM (inactive) | – | 34.7 µM (inactive) | 31.2 µM (inactive) | 30.8 µM (inactive) | 32.2 µM (inactive) | – | 41.9 µM (inactive) | 30.8 µM (inactive) | 27 µM (inactive) | 35.6 µM (inactive) | 21.1 µM (inactive) |
| N#CC1=C(N)N(c2ccccc2)C(c2ccco2)C1(C#N)C#N (stereo not drawn) | 17.9 µM (inactive) | 14.3 µM (inactive) | 17.5 µM (inactive) | 19.2 µM (inactive) | 17.4 µM (inactive) | – | 17.5 µM (inactive) | – | 16.4 µM (inactive) | – | 26.9 µM (inactive) | 38.2 µM (inactive) | 20 µM (inactive) | 28.4 µM (inactive) | – | 21.8 µM (inactive) | 18 µM (inactive) | 28.4 µM (inactive) | 17.4 µM (inactive) | 27 µM (inactive) |
| CCN(/N=C1\CC2C=CCN(C2)C(=O)Cc2c1[nH]c1ccccc21)S(=O)(=O)c1ccc(C)cc1 (stereo not drawn) | – | > 100 µM (inactive) | > 100 µM (inactive) | 68.4 µM (inactive) | 69.8 µM (inactive) | – | 73.1 µM (inactive) | – | > 100 µM (inactive) | 64.1 µM (inactive) | 81.8 µM (inactive) | 49.8 µM (inactive) | 40.3 µM (inactive) | 71.1 µM (inactive) | 53.3 µM (inactive) | > 100 µM (inactive) | 14.6 µM (inactive) | – | – | – |
| O=[N+]([O-])C1CC/C(=N/O)c2nonc21 (stereo not drawn) | > 10 µM (inactive) | > 10 µM (inactive) | > 10 µM (inactive) | > 10 µM (inactive) | > 10 µM (inactive) | – | > 10 µM (inactive) | – | > 10 µM (inactive) | – | > 10 µM (inactive) | > 10 µM (inactive) | > 10 µM (inactive) | > 10 µM (inactive) | – | > 10 µM (inactive) | > 10 µM (inactive) | > 10 µM (inactive) | > 10 µM (inactive) | > 10 µM (inactive) |
| CSc1nc2nccnc2c(=O)[nH]1 | > 100 µM (inactive) | > 100 µM (inactive) | > 100 µM (inactive) | > 100 µM (inactive) | – | > 100 µM (inactive) | > 100 µM (inactive) | – | > 100 µM (inactive) | > 100 µM (inactive) | > 100 µM (inactive) | > 100 µM (inactive) | > 100 µM (inactive) | > 100 µM (inactive) | > 100 µM (inactive) | > 100 µM (inactive) | > 100 µM (inactive) | – | – | – |
| C=C1C(=O)OC2CC(C)C(/C=C/C(C)=O)=CCC12 (stereo not drawn) | > 100 µM (inactive) | 40 µM (inactive) | 26.4 µM (inactive) | > 100 µM (inactive) | > 100 µM (inactive) | – | 33.1 µM (inactive) | – | > 100 µM (inactive) | – | > 100 µM (inactive) | > 100 µM (inactive) | > 100 µM (inactive) | > 100 µM (inactive) | – | > 100 µM (inactive) | > 100 µM (inactive) | > 100 µM (inactive) | > 100 µM (inactive) | > 100 µM (inactive) |
| Cc1ccc2nc(/C=N/c3ccc(Cl)cc3)cc(C)c2c1 | 13.4 µM (inactive) | 1.06 µM (active) | 10.6 µM (inactive) | 0.989 µM (active) | 0.269 µM (active) | – | 1.14 µM (inactive) | – | 0.574 µM (active) | – | 27.6 µM (inactive) | 1.24 µM (inactive) | 14.4 µM (inactive) | 0.798 µM (active) | – | 8.47 µM (inactive) | 18.4 µM (inactive) | 1.04 µM (active) | 4.7 µM (inactive) | 3.44 µM (inactive) |
| N#CC(C(=O)C(=O)Nc1ccccc1)c1ccccc1 (stereo not drawn) | > 100 µM (inactive) | > 100 µM (inactive) | > 100 µM (inactive) | > 100 µM (inactive) | > 100 µM (inactive) | > 100 µM (inactive) | > 100 µM (inactive) | – | – | > 100 µM (inactive) | > 100 µM (inactive) | > 100 µM (inactive) | > 100 µM (inactive) | > 100 µM (inactive) | > 100 µM (inactive) | > 100 µM (inactive) | > 100 µM (inactive) | – | – | – |
| CS(=O)(=O)C(C#N)c1nc2ccccc2nc1Cl (stereo not drawn) | > 100 µM (inactive) | > 94 µM (inactive) | – | > 66.5 µM (inactive) | > 34.4 µM (inactive) | > 100 µM (inactive) | > 100 µM (inactive) | > 100 µM (inactive) | > 32.2 µM (inactive) | – | > 100 µM (inactive) | > 100 µM (inactive) | > 100 µM (inactive) | > 100 µM (inactive) | 4.18 µM (inactive) | > 100 µM (inactive) | > 100 µM (inactive) | > 100 µM (inactive) | > 100 µM (inactive) | > 36.5 µM (inactive) |
